Test results reported in US20150259331A1, “PROTOZOAN PARASITE GROWTH INHIBITORS” (Northeastern University, priority 2014, published 2015).
Counter-ions that a name gives are not always drawn. Like-named read-outs stand apart in the source and are kept apart here. Marks after values point to notes of the source that are not given here.

Columns and labels:
[1] = tested on: P. falciparum C235; test: P. falciparum C235 assay; format: cell-based; conditions: read-out: P. falciparum C235 (EC50)
[2] = tested on: T. cruzi; test: T. cruzi growth inhibition; format: cell-based, Trypanosoma cruzi; conditions: for inhibition at 10 µM: read-out: T. cruzi % inh at 10 μM
[3] = tested on: HepG2 cells; test: HepG2 cell toxicity (MTT) assay; format: cell-based
Protocol: Then 2 μL of DMSO (control) or different concentrations of drugs prepared from 200× DMSO stocks were added to the cultures. […] All experiments were repeated thrice in independent studies where each dose was administered in duplicate (total n=6). HepG2 Cell Toxicity Assay. The 384 well MTT cytotoxicity assay is a modification of the MTT method described by Ferrari et al. optimized for 384-well throughput, with modifications described below.
HepG2 Cell Toxicity assay. The 384 well MTT cytotoxicity assay is a modification of the MTT method described by Ferrari et al.^1 ENREF—26_ENREF—26_ENREF—26 optimized for 384 well throughput. […] 4.25 μL of diluted test compound was then added to the 38.3 μL of media in each well providing a 10 fold final dilution of compound. […] After a 48 hour incubation period, 8 μL of a 1.5 mg/ml solution of MTT diluted in complete MEM media was added to each well. All plates were subsequently incubated in the dark for 1 hour at room temperature. After incubation, the media and drugs in each well was removed by shaking plate over sink, the plates are then left to dry in hood for 15 minutes. […] Plates are put on a 3-D rotator for 15-30 minutes. Absorbance was determined in all wells using a Tecan iControl 1.6 Infinite plate reader.

[4] = tested on: L. major amastigote; test: L. major amastigote assay; format: cell-based
[5] = tested on: P. falciparum D6; test: P. falciparum D6 assay; format: cell-based; conditions: strain D6
[6] = tested on: L. major promastigote; test: L. major promastigote assay; format: cell-based
[7] = tested on: P. falciparum W2; test: P. falciparum W2 assay; format: cell-based
[8] = tested on: T. brucei brucei Lister 427; test: Trypanosome replication assay; format: cell-based, Trypanosoma brucei brucei; conditions: 48 h, 48 h, values ±7%
[9] = Plasmodium falciparum, strain C235
[10] = Homo sapiens, HepG2, 48 h, MTT, 48 hour incubation, read-out: HepG2 IC50
[11] = Plasmodium falciparum, strain W2, read-out: P. falciparum W2 (EC50)
[12] = Trypanosoma brucei, concentration giving 50% inhibition of growth of T brucei brucei Lister 427 cells, read-out: Tbb EC50
[13] = MTT, 48 hour incubation, read-out: HepG2 IC50
[14] = strain W2, read-out: P. falciparum W2 (EC50)
[15] = concentration giving 50% inhibition of growth of T brucei brucei Lister 427 cells, read-out: Tbb EC50
[16] = Trypanosoma brucei, read-out: Tbb EC50, concentration giving 50% inhibition of growth of T brucei brucei Lister 427 cells
[17] = Homo sapiens, HepG2, 48 h, read-out: HepG2 IC50, MTT, 48 hour incubation
[18] = read-out: HepG2 IC50, MTT, 48 hour incubation
[19] = Plasmodium falciparum, W2, read-out: P. falciparum W2 (EC50)

Row | SMILES | EC50 [1, 9] [nM] | inhibition at 10 µM ([2]; Trypanosoma cruzi) [%] | IC50 [3, 10] [nM] | EC50 ([4]; Leishmania major) [nM] | EC50 ([5]; Plasmodium falciparum) [nM] | EC50 ([6]; Leishmania major) [nM] | EC50 [7, 11] [nM] | EC50 [8, 12] [nM] | further results
1 | CN1CCN(S(=O)(=O)c2ccc(-c3ccc4ncnc(Nc5ccc(OCc6cccc(F)c6)c(Cl)c5)c4c3)cc2)CC1 [Compound 10p, N-(3-Chloro-4-((3-fluorobenzyl)oxy)phenyl)-6-(4-((4-methylpiperazin-1-yl)sulfonyl)phenyl)quinazolin-4-amine] | 39 | 60 | > 15000 | 1600 | 27 | 2800 | 44 | 530 | 
2 | O=S(=O)(c1ccc(-c2ccc3ncnc(Nc4ccc(OCc5cccc(F)c5)cc4)c3c2)cc1)N1CCOCC1 [Compound 20n, N-(4-((3-Fluorobenzyl)oxy)phenyl)-6-(4-(morpholinosulfonyl)phenyl)quinazolin-4-amine] | 850 | 10 | > 15000 | 470 | 440 | 480 | 2000 | 650 | 
3 | O=S(=O)(c1ccc(-c2ccc3ncnc(Nc4ccc(OCc5cc(F)cc(F)c5F)c(Cl)c4)c3c2)cc1)N1CCOCC1 [Compound 20m, N-(3-Chloro-4-((2,3,5-trifluorobenzyl)oxy)phenyl)-6-(4-(morpholinosulfonyl)phenyl)quinazolin-4-amine Hydrochloride] | 240 | 14 | > 3000 | 3000 | 140 | 3000 | 450 | 1120 | EC50 ([8]; concentration giving 50% inhibition of growth of T brucei brucei Lister 427 cells, listed as NEU-569, Hydrochloride, read-out: Tbb EC50): 1100 nM
4 | COc1cc(Nc2ncnc3ccc(-c4ccc(S(=O)(=O)N5CCOCC5)cc4)cc23)ccc1OCc1cccc(F)c1 [Compound 20o, N-(4-((3-Fluorobenzyl)oxy)-3-methoxyphenyl)-6-(4-(morpholinosulfonyl)phenyl)quinazolin-4-amine] | 600 | 2 | > 15000 | > 15000 | 440 | > 15000 | 650 | 1880 | EC50 ([8]; concentration giving 50% inhibition of growth of T brucei brucei Lister 427 cells, listed as NEU-570, read-out: Tbb EC50): 1900 nM
5 | COc1ccc(Nc2ncnc3ccc(-c4ccc(S(=O)(=O)N5CCOCC5)cc4)cc23)cc1Cl [Compound 20d, N-(3-Chloro-4-methoxyphenyl)-6-(4-(morpholinosulfonyl)-phenyl)quinazolin-4-amine Hydrochloride] | 1200 | 43 | > 15000 | 4800 | 810 | 830 | 1700 | 820 | 
6 | O=S(=O)(c1ccc(-c2ccc3ncnc(Nc4ccc(O)c(Cl)c4)c3c2)cc1)N1CCOCC1 [Compound 20c, 2-Chloro-4-((6-(4-(morpholinosulfonyl)phenyl)quinazolin-4-yl)amino)phenol Hydrochloride] | 19000 | 14 | > 15000 | > 15000 | 12000 | > 15000 | 19000 | 1060 | EC50 ([8]; concentration giving 50% inhibition of growth of T brucei brucei Lister 427 cells, listed as NEU-550, Hydrochloride, read-out: Tbb EC50): 1100 nM
7 | O=S(=O)(c1ccc(-c2ccc3ncnc(Nc4ccccc4)c3c2)cc1)N1CCOCC1 [Compound 20a, 6-(4-(Morpholinosulfonyl)phenyl)-N-phenylquinazolin-4-amine Hydrochloride] | 4100 | 13 | > 3000 | 4100 | 4100 | 4100 | 4100 | 1440 | EC50 ([8]; concentration giving 50% inhibition of growth of T brucei brucei Lister 427 cells, listed as NEU-548, Hydrochloride, read-out: Tbb EC50): 1400 nM
8 | CN1CCCN(S(=O)(=O)c2ccc(-c3ccc4ncnc(Nc5ccc(OCc6cccc(F)c6)c(Cl)c5)c4c3)cc2)CC1 [Compound 10q, N-(3-Chloro-4-((3-fluorobenzyl)oxy)phenyl)-6-(4((4-methyl-1,4-diazepan-1-yl)sulfonyl)phenyl)quinazolin-4-amine] | 50 |  | 1810 | 2000 | 46 | 3600 | 52 | 810 | EC50 ([2]; Trypanosoma cruzi): 510 nM
9 | O=S(=O)(c1cccc(-c2ccc3ncnc(Nc4ccc(OCc5cccc(F)c5)c(Cl)c4)c3c2)c1)N1CCCC1 [Compound 10o] |  |  |  |  |  |  |  |  | EC50 ([1]; strain C235): 300 nM; T. cruzi % inh at 10 μM ([2]; 10 μM): (32)* %; IC50 [3, 13]: > 15000 nM; EC50 [4]: > 15000 nM; EC50 [5]: 190 nM; EC50 [6]: > 15000 nM; EC50 [7, 14]: 480 nM; EC50 [8, 15]: 250 nM
10 | Fc1cccc(COc2ccc(Nc3ncnc4ccc(-c5ccc(N6CCOCC6)cc5)cc34)cc2Cl)c1 [Compound 23b, N-(3-Chloro-4-((3-fluorobenzyl)oxy)phenyl)-6-(4-morpholinophenyl)quinazolin-4-amine] | 290 | 10 | 9600 | > 15000 | 270 | 4400 | 1100 |  | EC50 [8, 16]: 1910 nM; EC50 ([8]; read-out: Tbb EC50, concentration giving 50% inhibition of growth of T brucei brucei Lister 427 cells, listed as NEU-733): 1900 nM
11 | O=S(=O)(c1ccc(-c2ccc3ncnc(Nc4ccc(OCc5cccc(F)c5)c(Cl)c4)c3c2)cc1)N1CCNCC1 [Compound 10s] |  |  |  |  |  |  |  |  | EC50 ([1]; strain C235): 120 nM; EC50 [2]: 790 nM; IC50 [3, 13]: 3320 nM; EC50 [4]: 800 nM; EC50 [5]: 94 nM; EC50 [6]: > 15000 nM; EC50 [7, 14]: 200 nM; EC50 [8, 15]: 280 nM
12 | O=S(=O)(c1ccc(-c2ccc3ncnc(Nc4ccc(OCc5cccc(Cl)c5)c(Cl)c4)c3c2)cc1)N1CCOCC1 [Compound 20g, N-(3-Chloro-4-((3-chlorobenzyl)oxy)phenyl)-6-(4-(morpholinosulfonyl)phenyl)quinazolin-4-amine Hydrochloride] | 330 | 4 | > 15000 | 1100 | 230 | 15000 | 660 | 660 | 
13 | O=S(=O)(c1ccc(-c2ccc3ncnc(Nc4ccc(OCc5cccc(F)c5)c(Cl)c4)c3c2)cc1)N1CCCCC1 [Compound 10l, N-(3-Chloro-4-((3-fluorobenzyl)oxy)phenyl)-6-(4-(piperidin-1-ylsulfonyl)phenyl)quinazolin-4-amine] |  | 1 |  | > 15000 | 180 | > 15000 |  |  | EC50 ([1]; Plasmodium falciparum): 240 nM; IC50 [3, 17]: > 15000 nM; IC50 [3, 18]: > 20000 nM; EC50 [7, 19]: 330 nM; EC50 [8, 16]: 320 nM
14 | Cc1ccc(Nc2ncnc3ccc(-c4ccc(S(=O)(=O)N5CCOCC5)cc4)cc23)cc1 [Compound 20b, 6-(4-(Morpholinosulfonyl)phenyl)-N-(p-tolyl)quinazolin-4-amine Hydrochloride] | 2800 | 59 | > 15000 | > 15000 | 1700 | 450 | 6200 | 1150 | EC50 ([8]; concentration giving 50% inhibition of growth of T brucei brucei Lister 427 cells, listed as NEU-549, Hydrochloride, read-out: Tbb EC50): 1200 nM
15 | O=S(=O)(c1cccc(-c2ccc3ncnc(Nc4ccc(OCc5cccc(F)c5)c(Cl)c4)c3c2)c1)N1CCCCC1 [Compound 10m, N-(3-Chloro-4-((3-fluorobenzyl)oxy)phenyl)-6-(3-(piperidin-1-ylsulfonyl)phenyl)quinazolin-4-amine] |  |  |  | > 15000 | 330 | > 15000 |  |  | EC50 ([1]; Plasmodium falciparum): 350 nM; EC50 ([2]; Trypanosoma cruzi): > 50000 nM; IC50 [3, 17]: > 15000 nM; IC50 [3, 18]: > 20000 nM; EC50 [7, 19]: 590 nM; EC50 [8, 16]: 460 nM
